Laboratory results as given in article PMC7822874, “Chemoprotective antimalarials identified through quantitative high-throughput screening of Plasmodium blood and liver stage parasites” (Scientific Reports, 2021).
Where “and” joins values, the source holds several entries; their conditions need not be identical. Equal entries are not always repeated.

Experiments:
[1] = tested on: T1, Plasmodium falciparum Dd2-attB (parental line), asexual blood stages; assay: microbe, parasite or virus in culture; set-up: replicate k of 3 (each line is one of three independent assays; the three lines of one compound and parasite line follow each other); settings: n = 1; for Individual replicates / Log AC50 (M): 72 h; for AC50: Plasmodium falciparum, DD2, 72 h, read-out: Individual replicates / Log AC50 (converted)
T1 construct: Dd2-attB, the isogenic parental line
Summary of the method: (§1)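 Only some compounds were profiled here. Each was assayed three independent times against the Dd2-attB parent and its yeast-DHODH-overexpressing derivative.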

[2] = tested on: T2, Plasmodium falciparum Dd2-attB-ScDHODH (transgenic line expressing yeast DHODH), asexual blood stages; assay: organism not typed; set-up: replicate k of 3 (each line is one of three independent assays; the three lines of one compound and parasite line follow each other)
T2 construct: Dd2-attB-ScDHODH, the transgenic line that expresses yeast DHODH
Summary of the method: as §1

[3] = 72 h; n = 1; read-out: Individual replicates / Log AC50 (converted)

Row | Structure (SMILES) | Individual replicates / Log AC50 (M) [1] | AC50 [1] [µM] | Individual replicates / Log AC50 (M) ([2]; 72 h, n = 1) | AC50 [2, 3] [µM] | Individual replicates / Log AC50 (M) ([2]; 72 h; n = 1)
1 | Oc1ccc(CNc2ccc3ccccc3n2)c2cccnc12 [NCGC00241029-01] | -4.8986 Log AC50 (M) and -5.0486 Log AC50 (M) | 7.1 | -4.8986 Log AC50 (M) | 7.1 | 
2 | Cc1nn2c(c1-c1ccccc1-c1ccccc1)N(Cc1ccc(C(=O)O)s1)CCC2 [NCGC00420478-02] | -4.8986 Log AC50 (M) and -4.7986 Log AC50 (M) | 17.8 | -4.7486 Log AC50 (M) | 14.2 | 
3 | O=C(c1ccc(-c2cnc3c(O)cccc3c2)cc1)N1CCNCC1 [NCGC00189507-01] | -4.8986 Log AC50 (M) and -4.9986 Log AC50 (M) | 14.2 | -4.7986 Log AC50 (M) | 10 | 
4 | Oc1ccc(CCc2c(F)cccc2F)c2cccnc12 [NCGC00184906-01] | -5.2486 Log AC50 (M) and -5.2986 Log AC50 (M) | 5.64 | -5.0486 Log AC50 (M) and -5.1486 Log AC50 (M) | 6.33 | 
5 | O=C(O)c1ccc(O)c2ncc(-c3ccc(N4CCOCC4)cc3)cc12 [NCGC00241754-01] | -4.7986 Log AC50 (M) | 15.9 |  | 14.2 | 
6 | CN(C)CCn1nc(-c2ccccc2O)nc1-c1ccccc1 [NCGC00390082-01] | -4.7486 Log AC50 (M) and -4.8486 Log AC50 (M) | 14.2 | -4.7986 Log AC50 (M) | 12.6 | 
7 | CCc1nc2c(sc3nc4c(cc32)COC(C)(C)C4)c(=O)n1Cc1ccco1 [NCGC00053301-03] |  | 17.8 |  | 10 | 
8 | O=C(O)c1ccc(O)c2ncc(-c3ccc(C(=O)N4CCNCC4)cc3)cc12 [NCGC00189508-01] | -4.7486 Log AC50 (M) and -4.7986 Log AC50 (M) | 15.9 | -4.7486 Log AC50 (M) | 15.9 | 
9 | CN1CCC(CCOC(c2cc3nccc(C(=O)O)c3[nH]2)c2ccccc2Cl)C1 (centres unmarked) [NCGC00481023-01] |  | 12.6 |  | 8.94 | 
10 | COC(=O)c1ccnc2cc(C(OCCC3CCCN3C)c3ccccc3Cl)[nH]c12 (centres unmarked) [NCGC00479019-01] | -5.1986 Log AC50 (M) and -5.1486 Log AC50 (M) | 5.03 | -5.2986 Log AC50 (M) and -5.1486 Log AC50 (M) | 7.1 | 
11 | Oc1ccc(/C=C/c2ccccc2)c2cccnc12 [NCGC00184900-01] | -5.2486 Log AC50 (M) and -5.2986 Log AC50 (M) | 6.33 | -5.1986 Log AC50 (M) and -4.7986 Log AC50 (M) |  | 
12 | CCOC(=O)CCNc1cc(N2CCc3ccccc3CC2)nc(-c2ccccn2)n1 [NCGC00344626-04] | -5.2986 Log AC50 (M) and -5.2486 Log AC50 (M) and -5.0486 Log AC50 (M) |  | -5.2986 Log AC50 (M) and -4.9486 Log AC50 (M) |  | 
13 | CCOC(=O)c1ccc(OC(C)=O)c2ncc(N3CCOCC3)cc12 [NCGC00244523-01] | -5.3486 Log AC50 (M) and -5.3986 Log AC50 (M) | 4.48 |  | 4.48 | -5.3486 Log AC50 (M)
14 | O=C(CCc1ccccc1)NC(c1cccs1)c1cc(Cl)c2cccnc2c1O (centres unmarked) [MLS000703748-02] | -5.4486 Log AC50 (M) | 3.99 |  | 3.99 | -5.3986 Log AC50 (M)
15 | NC(=O)c1cccc(-c2cnc3c(O)ccc(C(=O)O)c3c2)c1 [NCGC00241055-01] |  | 15.9 |  | 14.2 | 
16 | Cc1nn2c(c1-c1ccccc1-c1ccccc1)N(CCCc1ccccc1)CCC2 [NCGC00500005-01] | -5.0486 Log AC50 (M) | 7.97 | -5.0486 Log AC50 (M) and -4.8986 Log AC50 (M) | 8.94 | 
17 | CN(C)c1ccc(-c2nc(-c3ccccc3O)n(Cc3ccccc3)n2)cc1 [NCGC00388637-01] | -6.0986 Log AC50 (M) | 0.797 | -5.6486 Log AC50 (M) and -6.0486 Log AC50 (M) and -6.1486 Log AC50 (M) |  | 
18 | CCOC(=O)c1ccnc2cc(C(OCCN3CCCCC3)c3ccccc3Cl)sc12 (centres unmarked) [NCGC00481512-01] | -5.1486 Log AC50 (M) | 5.64 | -5.1986 Log AC50 (M) and -5.0986 Log AC50 (M) | 7.97 | 
19 | O=C(NCCCN1CCCC1)c1cccc(-c2cc(O)c3ncccc3c2)c1 [NCGC00247742-01] | -4.7986 Log AC50 (M) | 17.8 |  | 17.8 | -4.7486 Log AC50 (M)

Row | Structure (SMILES) | Individual replicates / Log AC50 (M) [1] | AC50 [1] [µM] | Individual replicates / Log AC50 (M) ([2]; 72 h, n = 1) | AC50 [2, 3] [µM] | Individual replicates / Log AC50 (M) ([2]; 72 h; n = 1)
20 | CCOC(=O)c1ccc(O)c2ncc(-c3ccc(C(=N)N)cc3)cc12 [NCGC00241050-01] |  | 17.8 |  | 20 | -4.6986 Log AC50 (M)
21 | Cc1ccnc(NCc2ccc(O)c3ncccc23)c1 [NCGC00241032-01] | -4.8486 Log AC50 (M) and -4.7486 Log AC50 (M) | 17.8 | -5.0486 Log AC50 (M) | 14.2 | 
22 | CN1CCC(CNCc2nccc3c(=O)[nH]c(COc4ccc(Cc5ccccc5)cc4)nc23)C1 (centres unmarked) [NCGC00489856-01] | -4.7986 Log AC50 (M) and -4.8486 Log AC50 (M) | 15.9 |  | 17.8 | 
23 | COC(=O)c1ccc(O)c2ncc(N(C)C)cc12 [NCGC00189506-01] | -5.0986 Log AC50 (M) and -5.1486 Log AC50 (M) | 7.97 | -5.0486 Log AC50 (M) | 14.2 | 
24 | CCCCOC(=O)c1ccnc2cc(C(OCCN3CCCCC3)c3ccccc3Cl)sc12 (centres unmarked) [NCGC00481505-01] | -5.2486 Log AC50 (M) and -5.0986 Log AC50 (M) | 8.94 | -5.0486 Log AC50 (M) and -5.1486 Log AC50 (M) | 14.2 | 
25 | CC(Cc1cnccn1)Nc1cnc2c(O)ccc(C(=O)O)c2c1 (centres unmarked) [NCGC00241766-01] | -4.8486 Log AC50 (M) | 15.9 |  | 7.97 | 
26 | N#CNC(=O)c1ccnc2cc(C(OCCN3CCCCC3)c3ccccc3Cl)sc12 (centres unmarked) [NCGC00483126-01] | -4.8986 Log AC50 (M) and -4.7486 Log AC50 (M) | 14.2 | -4.7986 Log AC50 (M) | 15.9 | 
27 | Cc1ccccc1C(OCCN1CCCCC1)c1cc2nccc(Cl)c2s1 (centres unmarked) [NCGC00481525-01] | -5.0486 Log AC50 (M) and -4.9986 Log AC50 (M) | 8.94 | -5.0486 Log AC50 (M) | 10 | 
28 | CN(C)CCn1nc(-c2ccccc2)nc1-c1ccccc1O [NCGC00390083-01] | -5.1486 Log AC50 (M) and -5.1986 Log AC50 (M) | 7.1 | -5.1486 Log AC50 (M) | 7.97 | 
29 | COC(=O)c1ccc(O)c2ncc(NC3CCNC3)cc12 (centres unmarked) [NCGC00241040-01] | -4.7486 Log AC50 (M) and -4.8486 Log AC50 (M) | 14.2 |  | 15.9 | -4.7986 Log AC50 (M)
30 | Cc1nnc2c3ccccc3nc(N3CCN(c4ccccc4)CC3)n12 [NCGC00107295-01] | -4.7986 Log AC50 (M) | 15.9 |  | 14.2 | 
31 | COC(=O)c1ccc(O)c2ncc(-c3ccc(C(=O)N4CCNCC4)cc3)cc12 [NCGC00189509-01] | -5.0486 Log AC50 (M) and -5.1486 Log AC50 (M) | 5.64 | -4.9486 Log AC50 (M) and -5.0986 Log AC50 (M) | 5.64 | 
32 | Cc1nn2c(c1-c1ccccc1-c1ccccc1)N(Cc1cccc(C#N)c1)CCC2 [NCGC00499314-01] | -5.1486 Log AC50 (M) and -5.0486 Log AC50 (M) | 8.94 | -4.9986 Log AC50 (M) and -5.0986 Log AC50 (M) | 10 | 
33 | Oc1cc(Nc2ccncc2)cc2cccnc12 [NCGC00183791-01] | -4.7486 Log AC50 (M) and -4.7986 Log AC50 (M) | 20 | -4.7486 Log AC50 (M) | 20 | 
34 | O=C(c1cccc(-c2cc(O)c3ncccc3c2)c1)N1CCCCC1 [NCGC00244533-01] | -5.0486 Log AC50 (M) and -5.0986 Log AC50 (M) | 6.33 | -5.1486 Log AC50 (M) and -4.9486 Log AC50 (M) | 7.1 | 
35 | N=C(N)c1cccc(-c2cnc3c(O)ccc(C(=O)O)c3c2)c1 [NCGC00241054-02] | -4.8986 Log AC50 (M) and -4.9486 Log AC50 (M) | 10 | -4.7486 Log AC50 (M) and -4.8486 Log AC50 (M) | 14.2 | 
36 | CC(OCCN1CCCCC1)c1cnn(-c2cc(CO)ccn2)c1-c1cccc(-c2ccccc2)c1 (centres unmarked) [NCGC00479246-01] | -5.5486 Log AC50 (M) and -5.3986 Log AC50 (M) | 3.56 | -5.3486 Log AC50 (M) | 3.56 | 
37 | Oc1cc(-c2ccc(CN3CCOCC3)cc2)cc2cccnc12 [NCGC00247750-01] | -5.2986 Log AC50 (M) and -5.3986 Log AC50 (M) | 5.03 | -5.2986 Log AC50 (M) and -5.1486 Log AC50 (M) | 5.03 | 
38 | COC(=O)c1ccnc2cc(C(OCCC3CCCCC3)c3ccccc3Cl)[nH]c12 (centres unmarked) [NCGC00421833-01] | -4.7986 Log AC50 (M) and -4.7486 Log AC50 (M) | 15.9 | -4.7486 Log AC50 (M) and -4.7986 Log AC50 (M) | 17.8 | 
